Measurements from patent US10059703B2, “3-alkyl-5-fluoro-4-substituted-imino-3,4-dihydropyrimidin-2(1H)-one derivatives as fungicides” (Adama Makhteshim Ltd., priority 2012, dated 2018).
Like-named read-outs stand apart in the source and are kept apart here.

Columns and labels:
[1] = test system: Septoria tritici; test: Fungicidal activity: leaf blotch of wheat, one-day protectant and three-day curative tests on wheat plants; type: in vivo; details: Zymoseptoria tritici
Method: Example 16: Evaluation of Fungicidal Activity: Leaf Blotch of Wheat (Mycosphaerella graminicola; anamorph: Septoria tritici; Bayer code SEPTTR)
Wheat plants (variety Yuma) were grown from seed in a greenhouse in 50% mineral soil/50% soil-less Metro mix until the first leaf was fully emerged, with 7-10 seedlings per pot. These plants were inoculated with an aqueous spore suspension of Septoria tritici either prior to or after fungicide treatments. After inoculation the plants were kept in 100% relative humidity (one day in a dark dew chamber followed by two to three days in a lighted dew chamber) to permit spores to germinate and infect the leaf. The plants were then transferred to a greenhouse for disease to develop.
(§1) The following tables present the activity of typical compounds of the present disclosure when evaluated in these experiments. The effectiveness of the test compounds in controlling disease was determined by assessing the severity of disease on treated plants, then converting the severity to percent control based on the level of disease on untreated, inoculated plants.
as §1, with “table presents” for “tables present”

[2] = 24 h, One-Day Protectant (1 DP), 100 ppm, wheat plants (variety Yuma), read-out: SEPTTR 100 PPM 1 DP (% Disease Control rating)
[3] = 72 h, Three-Day Curative (3 DC), 100 ppm, wheat plants (variety Yuma), read-out: SEPTTR 100 PPM 3 DC (% Disease Control rating)
[4] = 24 h, read-out: SEPTTR 100 PPM 1 DP (% Disease Control rating)
[5] = 72 h, read-out: SEPTTR 100 PPM 3 DC (% Disease Control rating)

C/N=c1\c(F)cn(S(=O)(=O)c2c(C)noc2C)c(=O)n1C [Compound F19]
pest or weed control at 100 ppm [1, 2]: 0 to 25% | pest or weed control at 100 ppm [1, 3]: 51 to 75% | melting point: 130.1 to 131.1 °C

C/N=c1\c(F)cn(S(=O)(=O)c2cccc(C)c2)c(=O)n1C [Compound F16]
pest or weed control at 100 ppm [1, 2]: 26 to 50% | pest or weed control at 100 ppm [1, 3]: 0 to 25% | melting point: 123.7 to 125.8 °C

C/N=c1\c(F)cn(S(=O)(=O)c2ccc(C)cc2)c(=O)n1C [Compound F3]
pest or weed control at 100 ppm [1, 2]: 76 to 100% | pest or weed control at 100 ppm [1, 3]: 51 to 75% | melting point: 117 to 123 °C

COC(=O)/N=c1\c(F)cn(S(=O)(=O)c2cc(Cl)sc2Cl)c(=O)n1C [Compound F51]
pest or weed control at 100 ppm [1, 2]: 0 to 25% | pest or weed control at 100 ppm [1, 3]: 0 to 25% | melting point: 148 to 149 °C

C/N=c1\c(F)cn(S(=O)(=O)c2ccc(C)c(Cl)c2)c(=O)n1C [Compound F10]
pest or weed control at 100 ppm [1, 2]: 76 to 100% | pest or weed control at 100 ppm [1, 3]: 51 to 75% | melting point: 149.4 to 151 °C

Cn1c(=O)n(S(=O)(=O)c2ccccc2)cc(F)/c1=N\C(=O)Oc1ccccc1 [Compound F38]
pest or weed control at 100 ppm [1, 4]: 76 to 100% | pest or weed control at 100 ppm [1, 5]: 76 to 100% | melting point: 170 to 171 °C

COc1ccc(S(=O)(=O)n2cc(F)/c(=N\Cc3ccccc3F)n(C)c2=O)cc1 [Compound F53, 5-fluoro-4-((2-fluorobenzyl)imino)-1-((4-methoxyphenyl)sulfonyl)-3-methyl-3,4-dihydropyrimidin-2(1H)-one]
pest or weed control at 100 ppm [1, 2]: 0 to 25% | pest or weed control at 100 ppm [1, 3]: 0 to 25% | melting point: 188 to 191 °C

Cc1cc(S(=O)(=O)n2cc(F)/c(=N\Cc3ccccc3F)n(C)c2=O)c(C)cc1Cl [Compound F58]
pest or weed control at 100 ppm [1, 2]: 0 to 25% | pest or weed control at 100 ppm [1, 3]: 0 to 25% | melting point: 208 to 210 °C

COc1ccc(S(=O)(=O)n2cc(F)/c(=N\C(=O)Oc3ccccc3)n(C)c2=O)cc1 [Compound F24, phenyl (5-fluoro-1-((4-methoxyphenyl)sulfonyl)-3-methyl-2-oxo-2,3-dihydropyrimidin-4(1H)-ylidene)carbamate]
pest or weed control at 100 ppm [1, 4]: 0 to 25% | pest or weed control at 100 ppm [1, 5]: 0 to 25% | melting point: 190 to 193 °C

C/N=c1\c(F)cn(S(=O)(=O)c2cc(Cl)sc2Cl)c(=O)n1C [Compound F9]
pest or weed control at 100 ppm [1, 2]: 76 to 100% | pest or weed control at 100 ppm [1, 3]: 76 to 100% | melting point: 157.1 to 158 °C

CCc1ccc(S(=O)(=O)n2cc(F)/c(=N\C(C)=O)n(C)c2=O)cc1 [Compound F32]
pest or weed control at 100 ppm [1, 2]: 76 to 100% | pest or weed control at 100 ppm [1, 3]: 76 to 100% | melting point: 158 °C

CC(C)c1ccc(S(=O)(=O)n2cc(F)/c(=N\C(=O)Oc3ccccc3)n(C)c2=O)cc1 [Compound F41]
pest or weed control at 100 ppm [1, 4]: 0 to 25% | pest or weed control at 100 ppm [1, 5]: 0 to 25% | melting point: 180 to 181 °C

C/N=c1\c(F)cn(S(=O)(=O)c2ccccc2OC)c(=O)n1C [Compound F8]
pest or weed control at 100 ppm [1, 2]: 76 to 100% | pest or weed control at 100 ppm [1, 3]: 76 to 100% | melting point: 204 to 205.4 °C

COC(=O)/N=c1\c(F)cn(S(=O)(=O)c2ccc(C(C)C)cc2)c(=O)n1C [Compound F48]
pest or weed control at 100 ppm [1, 2]: 0 to 25% | pest or weed control at 100 ppm [1, 3]: 0 to 25% | melting point: 116 to 117 °C

C/N=c1\c(F)cn(S(=O)(=O)c2cccc(C#N)c2)c(=O)n1C [Compound F7]
pest or weed control at 100 ppm [1, 2]: 26 to 50% | pest or weed control at 100 ppm [1, 3]: 51 to 75% | melting point: 148.6 to 150.6 °C

Cc1ccc(S(=O)(=O)n2cc(F)/c(=N\C(=O)c3ccccc3)n(C(=O)c3ccccc3)c2=O)cc1 [Compound F37, (E)-N-(3-benzoyl-5-fluoro-2-oxo-1-tosyl-2,3-dihydropyrimidin-4(1H)-ylidene)benzamide]
pest or weed control at 100 ppm [1, 2]: 0 to 25% | pest or weed control at 100 ppm [1, 3]: 0 to 25% | melting point: 180.8 to 182.2 °C

C/N=c1\c(F)cn(S(=O)(=O)c2cccc(OC)c2)c(=O)n1C [Compound F12]
pest or weed control at 100 ppm [1, 2]: 76 to 100% | pest or weed control at 100 ppm [1, 3]: 76 to 100% | melting point: 111.4 to 112 °C

C/N=c1\c(F)cn(S(=O)(=O)c2ccc(OC)c(F)c2)c(=O)n1C [Compound F13]
pest or weed control at 100 ppm [1, 2]: 76 to 100% | pest or weed control at 100 ppm [1, 3]: 76 to 100% | melting point: 138.9 to 140.3 °C

Cc1cccc(S(=O)(=O)n2cc(F)/c(=N\Cc3ccccc3F)n(C)c2=O)c1 [Compound F57]
pest or weed control at 100 ppm [1, 2]: 0 to 25% | pest or weed control at 100 ppm [1, 3]: 0 to 25% | melting point: 177 to 180 °C

C/N=c1\c(F)cn(S(=O)(=O)c2cc(OC)ccc2OC)c(=O)n1C [Compound F11]
pest or weed control at 100 ppm [1, 2]: 76 to 100% | pest or weed control at 100 ppm [1, 3]: 76 to 100% | melting point: 115 to 117.8 °C

CCc1ccc(S(=O)(=O)n2cc(F)/c(=N\C(=O)OC)n(C)c2=O)cc1 [Compound F47]
pest or weed control at 100 ppm [1, 2]: 0 to 25% | pest or weed control at 100 ppm [1, 3]: 0 to 25% | melting point: 125 to 126 °C

Cc1cccc(S(=O)(=O)n2cc(F)/c(=N\C(=O)Oc3ccccc3)n(C)c2=O)c1 [Compound F42]
pest or weed control at 100 ppm [1, 4]: 76 to 100% | pest or weed control at 100 ppm [1, 5]: 0 to 25% | melting point: 187 to 188 °C

C/N=c1\c(F)cn(S(=O)(=O)c2ccc(OC)cc2)c(=O)n1C [Compound F1, (E)-5-fluoro-1-((4-methoxyphenyl)sulfonyl)-3-methyl-4-(methylimino)-3,4-dihydropyrimidin-2(1H)-one]
pest or weed control at 100 ppm [1, 2]: 76 to 100% | pest or weed control at 100 ppm [1, 3]: 51 to 75% | melting point: 97 to 105 °C

C/N=c1\c(F)cn(S(=O)(=O)c2cccc(F)c2)c(=O)n1C [Compound F14]
pest or weed control at 100 ppm [1, 2]: 76 to 100% | pest or weed control at 100 ppm [1, 3]: 51 to 75% | melting point: 137.3 to 138.9 °C

CC(C)c1ccc(S(=O)(=O)n2cc(F)/c(=N\Cc3ccccc3F)n(C)c2=O)cc1 [Compound F56]
pest or weed control at 100 ppm [1, 2]: 0 to 25% | pest or weed control at 100 ppm [1, 3]: 0 to 25% | melting point: 140 to 143 °C

COC(=O)/N=c1\c(F)cn(S(=O)(=O)c2ccccc2)c(=O)n1C [Compound F45]
pest or weed control at 100 ppm [1, 2]: 0 to 25% | pest or weed control at 100 ppm [1, 3]: 0 to 25% | melting point: 185 to 186 °C

CC(=O)/N=c1\c(F)cn(S(=O)(=O)c2cc(C)c(Cl)cc2C)c(=O)n1C [Compound F35]
pest or weed control at 100 ppm [1, 2]: 76 to 100% | pest or weed control at 100 ppm [1, 3]: 26 to 50% | melting point: 173 °C

C/N=c1\c(F)cn(S(=O)(=O)c2ccc(OC(F)(F)F)cc2)c(=O)n1C [Compound F6]
pest or weed control at 100 ppm [1, 2]: 76 to 100% | pest or weed control at 100 ppm [1, 3]: 76 to 100% | melting point: 139.2 to 140 °C

C/N=c1\c(F)cn(S(=O)(=O)C2CC2)c(=O)n1C [Compound F28]
pest or weed control at 100 ppm [1, 2]: 0 to 25% | pest or weed control at 100 ppm [1, 3]: 51 to 75% | melting point: 102.2 to 104 °C

CC(=O)/N=c1\c(F)cn(S(=O)(=O)c2cc(Cl)sc2Cl)c(=O)n1C [Compound F36]
pest or weed control at 100 ppm [1, 2]: 76 to 100% | pest or weed control at 100 ppm [1, 3]: 51 to 75% | melting point: 154 °C
